Measured values reported in US20150051257A1, “SULPHONAMIDE DERIVATIVES OF BENZYLAMINE FOR THE TREATMENT OF CNS DISEASES” (ADAMED SP. Z O.O, priority 2012, published 2015).

Key:
[1] = target: T1, hERG potassium channels (KCNH2 gene, expressed in CHO cells) (Homo sapiens, UniProt Q12809); assay: Ability to block hERG potassium channel (electrophysiology, IonWorks Quattro); assay type: cell-based; details: cloned hERG in CHO cells; test pulse +40 mV; concentration not given
T1 construct: expressed in transfected cells; host or cells: CHO cells
Procedure: Ability to Block hERG Potassium Channel Ability to block hERG potassium channels was determined using the electrophysiological method and cloned hERG potassium channels (KCNH2 gene, expressed in CHO cells) as biological material. The effects were evaluated using IonWorks™ Quattro system (MDS-AT).
hERG current was elicited using a pulse pattern with fixed amplitudes (conditioning pre-pulse: −80 mV for 25 ms; test pulse: +40 mV for 80 ms) from a holding potential of 0 mV. hERG current was measured as a difference between the peak current at 1 ms after the test step to +40 mV and the steady-state current at the end of the step to +40 mV.
Data acquisition and analyses were performed using the lonWorks Quattro™ system operation software (version 2.0.2; Molecular Devices Corporation, Union City, Calif.). Data were corrected for leak current.
The hERG block was calculated as: % Block=(1−I TA/IControl)×100%, where IControl and ITA were the currents elicited by the test pulse in control and in the presence of a test compound, respectively.

Male CD-1 mice = assay: d-Amphetamine-induced locomotor hyperactivity in mice; assay type: in vivo; details: compound i.p., d-amphetamine s.c., immediately before the test, ambulation counted during 2 h
Procedure: Potential antipsychotic activity was tested for the representative compound 60 in mouse model of psychosis, involving the induction of locomotor hyperactivity by administering psychotomimetic substance—d-amphetamine. The ability of a test compound to remove that effect is a measure of potential antipsychotic activity.
Male CD-1 mice weighing 20-22 g derived from accredited animal facility localized at Medical College of Jagiellonian University were group-housed for 3-4 day period in polycarbonate Makrolon type 3 cages (dimensions 26.5×15×42 cm) in an environmentally controlled, experimental room (ambient temperature 22-20C; relative humidity 50-60%; 12:12 light:dark cycle, lights on at 8:00), in groups of 15. Standard laboratory food (Morigram, Agropol) and filtered water were freely available. On the day before experiments the equipment produces “white noise” was turned on for 30 minutes and mice or rats were weighted exact to 1 g. Animals were assigned randomly to treatment groups. […]
The locomotor activity was recorded with an Opto M3 multi-channel activity monitor (MultiDevice Software v.1.3, Columbus Instruments). Mice were individually placed in plastic cages (22×12×13 cm) and then the crossings of each channel (ambulation) were counted during 2 h with data recording every 5 minutes. […]

SERT (h) = target: T2, SERT (h) (Homo sapiens, UniProt P31645); assay: Radioligand binding assay, serotonin transporter (SERT); details: test compound 1×10^−6M; [3H]imipramine; human recombinant (CHO cells)
T2 construct: expressed in transfected cells; host or cells: CHO cells
T2 sequence (P31645 whole entry): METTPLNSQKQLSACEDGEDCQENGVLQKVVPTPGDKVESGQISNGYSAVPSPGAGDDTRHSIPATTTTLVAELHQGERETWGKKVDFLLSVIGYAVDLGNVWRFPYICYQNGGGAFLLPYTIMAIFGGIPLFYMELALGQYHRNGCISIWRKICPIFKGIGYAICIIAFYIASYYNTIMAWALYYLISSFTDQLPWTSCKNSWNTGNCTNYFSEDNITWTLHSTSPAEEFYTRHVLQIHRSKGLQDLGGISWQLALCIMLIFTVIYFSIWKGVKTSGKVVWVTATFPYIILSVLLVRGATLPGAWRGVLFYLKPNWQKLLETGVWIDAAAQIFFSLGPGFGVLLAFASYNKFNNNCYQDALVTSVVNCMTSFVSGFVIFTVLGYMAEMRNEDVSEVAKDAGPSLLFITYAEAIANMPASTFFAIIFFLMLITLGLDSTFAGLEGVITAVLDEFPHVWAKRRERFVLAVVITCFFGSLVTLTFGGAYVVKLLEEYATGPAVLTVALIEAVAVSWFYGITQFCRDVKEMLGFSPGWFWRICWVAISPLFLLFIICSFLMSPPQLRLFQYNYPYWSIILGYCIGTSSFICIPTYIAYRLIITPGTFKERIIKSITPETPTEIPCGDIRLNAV
Procedure: (§1) Specific ligand binding to the receptors is defined as the difference between the total binding and the non-specific binding determined in the presence of an excess of unlabelled ligand.
(§2) The results are expressed as a percent of control specific binding ((measured specific binding/control specific binding)×100%) obtained in the presence of the test compounds. The compounds were tested for their affinity to receptors at a concentration of 1×10^−6M.
(§3) Conditions and methodology of in vitro tests are given by reference to the literature in Table 1, and the results of tests for representative compounds are given in Table 2 (dopaminergic receptors D2 and D3), in Table 3 (dopaminergic receptors D1 and D4.4), in Table 4 (serotoninergic receptors 5-HT1A, 5-HT2A, 5-HT6, 5-HT7), in table 5 (serotoninergic receptors 5-HT2C), in Table 6 (sigma o receptors), in Table 7 (adrenergic receptors α1, histaminergic receptors H1 and muscarinic receptors M3), in Table 8 (adrenergic receptors α2C) and in Table 9 (serotonin transporter receptors SERT).

5-HT6 (h) = target: T3, 5-HT6 (h) (Homo sapiens, UniProt P50406); assay: Radioligand binding assay, serotoninergic receptor 5-HT6; details: test compound 1×10^−6M; [3H]LSD; human recombinant (CHO cells)
T3 construct: expressed in transfected cells; host or cells: CHO cells
T3 sequence (P50406 whole entry): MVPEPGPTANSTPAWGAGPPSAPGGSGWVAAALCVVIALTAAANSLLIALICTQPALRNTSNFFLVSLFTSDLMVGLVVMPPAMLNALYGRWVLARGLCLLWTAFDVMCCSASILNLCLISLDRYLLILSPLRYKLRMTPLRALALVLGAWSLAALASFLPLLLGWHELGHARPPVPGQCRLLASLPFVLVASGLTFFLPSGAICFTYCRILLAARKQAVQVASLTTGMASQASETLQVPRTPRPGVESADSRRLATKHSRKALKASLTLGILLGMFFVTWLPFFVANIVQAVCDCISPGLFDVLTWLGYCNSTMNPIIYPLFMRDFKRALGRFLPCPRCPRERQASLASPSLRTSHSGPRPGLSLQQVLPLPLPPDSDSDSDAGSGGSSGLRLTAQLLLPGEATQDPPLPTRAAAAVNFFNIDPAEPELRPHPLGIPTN
Procedure: as §1, §2, §3

α2C (h) = target: T4, α2C (h) (Homo sapiens, UniProt P18825); assay: Radioligand binding assay, adrenergic receptor α2C; details: test compound 1×10^−6M; [3H]RX 821002; human recombinant (CHO cells)
T4 construct: expressed in transfected cells; host or cells: CHO cells
T4 sequence (P18825 1-462): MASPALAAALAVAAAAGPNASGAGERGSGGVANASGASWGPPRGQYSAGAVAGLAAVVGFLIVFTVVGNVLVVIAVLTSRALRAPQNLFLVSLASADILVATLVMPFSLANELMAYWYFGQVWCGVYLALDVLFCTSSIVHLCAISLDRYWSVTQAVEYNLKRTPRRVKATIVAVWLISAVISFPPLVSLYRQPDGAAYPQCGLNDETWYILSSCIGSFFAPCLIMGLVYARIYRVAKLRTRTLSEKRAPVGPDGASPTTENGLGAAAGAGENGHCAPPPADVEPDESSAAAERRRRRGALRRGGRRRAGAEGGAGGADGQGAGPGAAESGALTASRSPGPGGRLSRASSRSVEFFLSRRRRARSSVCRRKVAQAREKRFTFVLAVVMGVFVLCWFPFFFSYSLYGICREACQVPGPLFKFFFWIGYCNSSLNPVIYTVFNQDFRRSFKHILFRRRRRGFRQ
Procedure: as §1, §2, §3

5-HT2C (h) = target: T5, 5-HT2C (h) (Homo sapiens, UniProt P28335); assay: Radioligand binding assay, serotoninergic receptor 5-HT2C; details: test compound 1×10^−6M; [3H]mesulergine; human recombinant (HEK-293 cells)
T5 construct: expressed in transfected cells; host or cells: HEK-293 cells
T5 sequence (P28335 33-458): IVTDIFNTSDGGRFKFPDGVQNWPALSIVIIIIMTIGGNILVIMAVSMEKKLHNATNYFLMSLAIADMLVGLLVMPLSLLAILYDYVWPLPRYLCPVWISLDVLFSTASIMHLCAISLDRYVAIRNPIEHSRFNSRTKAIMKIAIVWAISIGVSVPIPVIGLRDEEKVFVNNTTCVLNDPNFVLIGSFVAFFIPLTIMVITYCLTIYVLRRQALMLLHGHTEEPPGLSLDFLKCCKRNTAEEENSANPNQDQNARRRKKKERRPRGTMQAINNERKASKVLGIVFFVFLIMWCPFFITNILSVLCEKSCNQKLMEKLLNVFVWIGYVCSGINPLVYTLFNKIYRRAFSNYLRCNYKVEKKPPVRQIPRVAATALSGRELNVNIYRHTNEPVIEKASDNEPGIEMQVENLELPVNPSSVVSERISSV
Procedure: as §1, §2, §3

D2S (h) = target: T6, D2S (h) (Homo sapiens, UniProt P14416); assay: Radioligand binding assay, dopaminergic receptor D2; details: test compound 1×10^−6M; [3H]methyl-spiperone; human recombinant (HEK-293 cells)
T6 construct: expressed in transfected cells; host or cells: HEK-293 cells
T6 sequence (P14416 1-414 isoform P14416-2): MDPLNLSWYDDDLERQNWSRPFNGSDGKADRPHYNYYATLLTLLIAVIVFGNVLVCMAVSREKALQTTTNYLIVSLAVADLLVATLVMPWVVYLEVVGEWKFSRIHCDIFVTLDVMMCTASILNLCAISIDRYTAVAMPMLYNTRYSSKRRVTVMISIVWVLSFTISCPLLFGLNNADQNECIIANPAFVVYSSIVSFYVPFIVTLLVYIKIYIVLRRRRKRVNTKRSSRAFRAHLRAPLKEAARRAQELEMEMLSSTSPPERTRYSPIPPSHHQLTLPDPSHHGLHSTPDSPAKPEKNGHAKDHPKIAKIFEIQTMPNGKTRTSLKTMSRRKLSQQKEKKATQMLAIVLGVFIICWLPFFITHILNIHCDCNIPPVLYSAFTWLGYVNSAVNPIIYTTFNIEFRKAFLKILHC
Procedure: as §1, §2, §3

σ (non-selective) = assay: Radioligand binding assay, σ receptors; details: test compound 1×10^−6M; [3H]DTG; rat cerebral cortex
Procedure: as §1, §2, §3

D4.4 (h) = target: T7, D4.4 (h) (Homo sapiens, UniProt P21917); assay: Radioligand binding assay, dopaminergic receptor D4.4; details: test compound 1×10^−6M; [3H]methyl-spiperone; human recombinant (CHO cells)
T7 construct: expressed in transfected cells; host or cells: CHO cells
T7 sequence (P21917 1-419): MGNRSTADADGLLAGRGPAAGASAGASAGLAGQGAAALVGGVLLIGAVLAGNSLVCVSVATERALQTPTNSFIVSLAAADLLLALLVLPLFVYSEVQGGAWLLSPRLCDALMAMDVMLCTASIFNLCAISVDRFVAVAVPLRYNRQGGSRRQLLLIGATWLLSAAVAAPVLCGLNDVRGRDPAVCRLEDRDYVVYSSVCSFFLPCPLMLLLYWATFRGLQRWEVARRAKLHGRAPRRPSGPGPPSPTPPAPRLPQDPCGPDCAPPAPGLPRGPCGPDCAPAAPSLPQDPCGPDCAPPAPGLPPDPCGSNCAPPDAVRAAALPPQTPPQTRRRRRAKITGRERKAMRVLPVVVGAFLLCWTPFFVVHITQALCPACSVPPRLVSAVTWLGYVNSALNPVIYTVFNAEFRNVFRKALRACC
Procedure: as §1, §2, §3

D3 (h) = target: T8, D3 (h) (Homo sapiens, UniProt P35462); assay: Radioligand binding assay, dopaminergic receptor D3; details: test compound 1×10^−6M; [3H]methyl-spiperone; human recombinant (CHO cells)
T8 construct: expressed in transfected cells; host or cells: CHO cells
T8 sequence (P35462 whole entry): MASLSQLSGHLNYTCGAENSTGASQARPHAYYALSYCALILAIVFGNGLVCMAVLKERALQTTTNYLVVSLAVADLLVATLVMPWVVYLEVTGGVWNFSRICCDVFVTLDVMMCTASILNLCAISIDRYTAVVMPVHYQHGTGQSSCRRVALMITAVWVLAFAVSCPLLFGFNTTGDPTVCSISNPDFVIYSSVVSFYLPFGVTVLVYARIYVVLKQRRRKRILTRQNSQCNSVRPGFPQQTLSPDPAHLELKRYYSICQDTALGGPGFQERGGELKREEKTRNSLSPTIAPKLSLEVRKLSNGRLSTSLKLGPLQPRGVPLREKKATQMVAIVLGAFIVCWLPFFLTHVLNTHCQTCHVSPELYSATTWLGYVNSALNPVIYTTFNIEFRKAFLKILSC
Procedure: as §1, §2, §3

α1 (non-selective) = assay: Radioligand binding assay, adrenergic α1 receptors; details: test compound 1×10^−6M; [3H]prazosin; rat cerebral cortex
Procedure: as §1, §2, §3

M3 (h) = target: T9, M3 (h) (Homo sapiens, UniProt P20309); assay: Radioligand binding assay, muscarinic M3 receptor; details: test compound 1×10^−6M; [3H]4-DAMP; human recombinant (CHO cells)
T9 construct: expressed in transfected cells; host or cells: CHO cells
T9 sequence (P20309 whole entry): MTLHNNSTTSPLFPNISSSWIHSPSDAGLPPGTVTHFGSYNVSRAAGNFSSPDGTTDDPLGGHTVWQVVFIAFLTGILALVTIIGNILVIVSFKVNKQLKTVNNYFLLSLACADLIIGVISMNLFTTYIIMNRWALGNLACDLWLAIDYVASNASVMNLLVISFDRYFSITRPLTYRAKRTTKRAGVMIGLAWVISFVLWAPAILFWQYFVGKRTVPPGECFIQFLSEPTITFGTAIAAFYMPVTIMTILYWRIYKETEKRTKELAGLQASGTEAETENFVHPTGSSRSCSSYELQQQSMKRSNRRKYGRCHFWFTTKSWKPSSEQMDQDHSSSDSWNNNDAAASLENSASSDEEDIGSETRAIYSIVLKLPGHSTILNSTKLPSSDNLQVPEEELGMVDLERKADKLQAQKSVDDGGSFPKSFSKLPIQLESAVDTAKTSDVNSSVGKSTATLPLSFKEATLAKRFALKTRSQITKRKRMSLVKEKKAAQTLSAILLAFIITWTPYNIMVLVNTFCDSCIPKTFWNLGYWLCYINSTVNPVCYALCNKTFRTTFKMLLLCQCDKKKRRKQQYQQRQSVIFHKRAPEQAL
Procedure: as §1, §2, §3

5-HT2A (h) = target: T10, 5-HT2A (h) (Homo sapiens, UniProt P28223); assay: Radioligand binding assay, serotoninergic receptor 5-HT2A; details: test compound 1×10^−6M; [3H]ketanserin; human recombinant (HEK-293 cells)
T10 construct: expressed in transfected cells; host or cells: HEK-293 cells
T10 sequence (P28223 whole entry): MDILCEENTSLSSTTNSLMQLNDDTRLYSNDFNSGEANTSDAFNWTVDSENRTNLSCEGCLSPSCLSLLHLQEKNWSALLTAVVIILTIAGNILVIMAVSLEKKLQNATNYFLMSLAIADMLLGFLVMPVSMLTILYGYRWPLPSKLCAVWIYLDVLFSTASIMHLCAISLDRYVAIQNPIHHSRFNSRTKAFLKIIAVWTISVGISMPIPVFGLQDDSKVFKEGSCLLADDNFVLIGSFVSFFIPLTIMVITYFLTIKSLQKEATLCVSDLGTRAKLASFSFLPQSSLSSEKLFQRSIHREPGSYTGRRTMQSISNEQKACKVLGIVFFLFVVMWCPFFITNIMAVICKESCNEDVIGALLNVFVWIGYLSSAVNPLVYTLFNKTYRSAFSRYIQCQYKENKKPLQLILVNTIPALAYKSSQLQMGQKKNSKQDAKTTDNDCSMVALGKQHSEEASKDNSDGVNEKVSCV
Procedure: as §1, §2, §3

D1 (h) = target: T11, D1 (h) (Homo sapiens, UniProt P21728); assay: Radioligand binding assay, dopaminergic receptor D1; details: test compound 1×10^−6M; [3H]SCH 23390; human recombinant (CHO cells)
T11 construct: expressed in transfected cells; host or cells: CHO cells
T11 sequence (P21728 whole entry): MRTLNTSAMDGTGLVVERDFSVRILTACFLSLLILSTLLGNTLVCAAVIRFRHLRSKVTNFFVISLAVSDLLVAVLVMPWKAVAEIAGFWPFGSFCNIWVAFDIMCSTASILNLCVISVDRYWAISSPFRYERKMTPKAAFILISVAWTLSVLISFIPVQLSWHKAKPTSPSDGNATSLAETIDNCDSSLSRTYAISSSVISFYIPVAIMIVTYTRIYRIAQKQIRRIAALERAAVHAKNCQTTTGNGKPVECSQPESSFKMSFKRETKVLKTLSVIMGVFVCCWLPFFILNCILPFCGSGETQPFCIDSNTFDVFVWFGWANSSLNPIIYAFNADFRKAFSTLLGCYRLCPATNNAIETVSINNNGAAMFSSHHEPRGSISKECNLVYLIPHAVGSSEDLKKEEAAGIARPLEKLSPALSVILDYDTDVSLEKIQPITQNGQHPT
Procedure: as §1, §2, §3

5-HT1A (h) = target: T12, 5-HT1A (h) (Homo sapiens, UniProt P08908); assay: Radioligand binding assay, serotoninergic receptor 5-HT1A; details: test compound 1×10^−6M; [3H]8-OH-DPAT; human recombinant (HEK-293 cells)
T12 construct: expressed in transfected cells; host or cells: HEK-293 cells
T12 sequence (P08908 1-422): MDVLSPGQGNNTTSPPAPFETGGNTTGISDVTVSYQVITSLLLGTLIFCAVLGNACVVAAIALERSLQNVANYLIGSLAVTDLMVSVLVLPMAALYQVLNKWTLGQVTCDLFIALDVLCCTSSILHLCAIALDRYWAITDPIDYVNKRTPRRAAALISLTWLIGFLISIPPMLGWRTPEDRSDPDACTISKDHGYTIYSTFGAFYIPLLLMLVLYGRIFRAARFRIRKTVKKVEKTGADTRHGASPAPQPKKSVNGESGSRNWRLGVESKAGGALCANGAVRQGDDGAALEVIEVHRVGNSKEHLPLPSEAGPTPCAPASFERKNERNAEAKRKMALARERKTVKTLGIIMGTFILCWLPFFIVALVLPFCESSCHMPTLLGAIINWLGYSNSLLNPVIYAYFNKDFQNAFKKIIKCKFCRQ
Procedure: as §1, §2, §3

5-HT7 (h) = target: T13, 5-HT7 (h) (Homo sapiens, UniProt P34969); assay: Radioligand binding assay, serotoninergic receptor 5-HT7; details: test compound 1×10^−6M; [3H]LSD; human recombinant (CHO cells)
T13 construct: expressed in transfected cells; host or cells: CHO cells
T13 sequence (P34969 whole entry): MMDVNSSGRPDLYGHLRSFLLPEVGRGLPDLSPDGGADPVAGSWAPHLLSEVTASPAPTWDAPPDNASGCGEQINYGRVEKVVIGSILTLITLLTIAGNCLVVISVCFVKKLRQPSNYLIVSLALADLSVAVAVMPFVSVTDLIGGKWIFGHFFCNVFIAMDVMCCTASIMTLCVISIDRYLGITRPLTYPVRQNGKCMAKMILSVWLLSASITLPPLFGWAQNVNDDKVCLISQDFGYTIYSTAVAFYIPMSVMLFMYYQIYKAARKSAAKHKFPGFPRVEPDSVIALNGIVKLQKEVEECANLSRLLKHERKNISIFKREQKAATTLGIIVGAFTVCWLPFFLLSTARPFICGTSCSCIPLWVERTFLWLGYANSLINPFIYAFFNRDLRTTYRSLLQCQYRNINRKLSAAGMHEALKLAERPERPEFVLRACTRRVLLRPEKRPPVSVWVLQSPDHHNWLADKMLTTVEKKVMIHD
Procedure: as §1, §2, §3

H1 (h) = target: T14, H1 (h) (Homo sapiens, UniProt P35367); assay: Radioligand binding assay, histaminergic H1 receptor; details: test compound 1×10^−6M; [3H]pyrilamine; human recombinant (HEK-293 cells)
T14 construct: expressed in transfected cells; host or cells: HEK-293 cells
T14 sequence (P35367 whole entry): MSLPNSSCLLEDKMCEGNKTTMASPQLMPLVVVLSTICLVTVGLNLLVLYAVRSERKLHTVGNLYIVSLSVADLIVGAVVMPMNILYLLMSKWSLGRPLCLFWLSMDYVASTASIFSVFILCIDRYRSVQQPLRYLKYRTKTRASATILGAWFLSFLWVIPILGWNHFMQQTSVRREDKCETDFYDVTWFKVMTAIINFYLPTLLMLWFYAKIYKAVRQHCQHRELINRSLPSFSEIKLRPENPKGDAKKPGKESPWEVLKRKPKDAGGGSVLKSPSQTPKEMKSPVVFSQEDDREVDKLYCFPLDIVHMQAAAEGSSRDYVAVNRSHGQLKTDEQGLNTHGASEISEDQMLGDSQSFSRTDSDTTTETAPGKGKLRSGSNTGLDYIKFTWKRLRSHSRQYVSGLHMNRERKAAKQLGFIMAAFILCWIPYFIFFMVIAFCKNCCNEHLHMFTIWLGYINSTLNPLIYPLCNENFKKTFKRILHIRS
Procedure: as §1, §2, §3

Molecule	hERG [%] (% Block) [1]	MED (Minimum Effective Dose) (Male CD-1 mice)	SERT [%] (SERT (h))	5-HT6 [%] (5-HT6 (h))	α2C [%] (α2C (h))	5-HT2C [%] (5-HT2C (h))	D2 [%] (D2S (h))	σ [%] (σ (non-selective))	D4.4 [%] (D4.4 (h))	D3 [%] (D3 (h))	α1 [%] (α1 (non-selective))	M3 [%] (M3 (h))	5-HT2A [%] (5-HT2A (h))	D1 [%] (D1 (h))	5-HT1A [%] (5-HT1A (h))	5-HT7 [%] (5-HT7 (h))	H1 [%] (H1 (h))
CN(CCCc1noc2cc(F)ccc12)Cc1cccc(NS(=O)(=O)c2ccccc2)c1 [Compound 60, N-[3-[[3-(6-fluoro-1,2-benzoxazol-3-yl)propylmethylamino]methyl]phenyl]benzenesulphonamide]	6%	10 mg/kg															
CN(CCCc1noc2cc(F)ccc12)Cc1cccc(NS(=O)(=O)c2ccc(C(C)(C)C)cc2)c1 [Compound 72, 4-tert-butylo-N-[3-[[3-(6-fluoro-1,2-benzoxazol-3-yl)propylmethylamino]methyl]-phenyl]benzenesulphonamide]			42%	99%	81%	23%	93%	80%	60%	63%	77%	25%	87%	45%	30%	93%	64%
N-[3-[[3-(6-fluoro-1,2-benzoxazol-3-yl)propylamino]methyl]phenyl]naphthalene-1-sulphonamide [Compound 54]			42%	88%	32%	17%	94%	50%	54%	76%	48%	2%	80%	27%	43%	90%	7%
